Source: patent publication US10793575B2, “Oxoisoquinoline derivatives” (CARNA BIOSCIENCES, INC., priority 2016, dated 2020)

What was measured:
dephosphorylated BTK = dephosphorylated BTK (Homo sapiens (Human), UniProt Q06187); assay: BTK Activity Inhibition Test (mobility shift assay); assay type: biochemical; details: 200 μM ATP, read-out: Inhibitory Activity on BTK
Experimental: Dephosphorylated BTK was obtained by adding λ protein phosphatase (manufactured by New England BioLabs Inc., Code No. P0753S) and MnCl2 at 10 U/μg and 2 mM, respectively, to biotinylated BTK protein BTN-BTK (Manufactured by Carna Biosciences, Inc.) enzyme solution, reacting the mixture at 4° C. overnight, and removing of λ protein phosphatase by anti […]-tag antibody agarose gel chromatography, followed by buffer exchange using a 10DG Desalting Column.
The kinase activity was measured using QuickScout Screening Assist (trade mark) MSA (commercially available kit manufactured by Carna Biosciences, Inc.) by mobility shift assay (MSA) method. The substrate of the kinase reaction was an FITC-labeled SRCtide peptide included in the kit. An assay buffer [20 mM HEPES, 0.01% Triton X-100 (Trade mark), 2 mM dithiothreitol, pH 7.5] was used and adjusted at 4 μM substrate, 20 mM MgCl2 and 200 μm ATP to obtain a substrate mixture solution. The enzyme solution was also prepared by diluting the dephosphorylated BTK to 0.46 nM using the assay buffer. The 10 mM solution of the test compound in DMSO was further diluted with DMSO to 10 levels of the concentration (0.00003 mM, 0.0001 mM, 0.0003 mM, 0.001 mM, 0.003 mM, 0.01 mM, 0.03 mM, 0.1 mM, 0.3 mM, 1 mM), each of which was subjected to a 25-fold dilution with the assay buffer to obtain the drug solutions (4% DMSO solutions). 5 μL of the drug solution or a control solution (4% DMSO-assay buffer), 5 μL of the substrate mixture solution, and 10 μL of the enzyme solution were mixed in the wells of a polypropylene 384-well plate and allowed to react at room temperature for 2 hours, and then quenched by adding 60 μL of the termination buffer included in the kit. Subsequently, the quantities of the substrates (S) and the phosphorylated substrate (P) in the reaction solution were measured using LabChip EZ Reader II system (manufactured by Caliper Life Sciences) according to the protocol of the assay kit.
The heights of the peaks of the isolated substrate and the phosphorylated substrate were represented as S and P, respectively, and a blank which contained the assay buffer instead of the enzyme solution was also measured.
The inhibition rate (%) of the test compound was calculated according to the following equation; Inhibition rate (%)=(1−(C−A)/(B−A))×100 • wherein, A, B and C represent P/(P+S) of the blank well, P/(P+S) of the control well and P/(P+S) of the compound-containing well, respectively.
The IC50 value was calculated via a regression analysis of the inhibition rate (%) and the test compound concentration (logarithmic value).

OCI-Ly10 cells = assay: Proliferation-Inhibitory Test Against Diffuse Large-Cell B-Cell Lymphoma OCI-Ly10 Strain; assay type: cell-based; details: Homo sapiens, 96 hours, alamarBlue
Experimental: OCI-Ly10 cells were cultured in IMDM medium (Iscove's Modified Dulbecco's Medium, Manufactured by Thermo Fisher Scientific Inc., hereinafter “medium”) containing 20% Fetal bovine serum and 1% penicillin-streptomycin (Nacalai Tesque, Inc.) in a 5% CO2 incubator. OCI-Ly10 cells were seeded to 96-well plate (20000 cells/well), compounds diluted with medium were added with final concentrations of 0.9 nM to 30000 nM (Final DMSO concentration, 0.3%), incubated for 96 hours and alamorBlue reagent (Thermo Fisher Scientific Inc.) was added.

Chain of dephosphorylated BTK (Q06187 whole entry): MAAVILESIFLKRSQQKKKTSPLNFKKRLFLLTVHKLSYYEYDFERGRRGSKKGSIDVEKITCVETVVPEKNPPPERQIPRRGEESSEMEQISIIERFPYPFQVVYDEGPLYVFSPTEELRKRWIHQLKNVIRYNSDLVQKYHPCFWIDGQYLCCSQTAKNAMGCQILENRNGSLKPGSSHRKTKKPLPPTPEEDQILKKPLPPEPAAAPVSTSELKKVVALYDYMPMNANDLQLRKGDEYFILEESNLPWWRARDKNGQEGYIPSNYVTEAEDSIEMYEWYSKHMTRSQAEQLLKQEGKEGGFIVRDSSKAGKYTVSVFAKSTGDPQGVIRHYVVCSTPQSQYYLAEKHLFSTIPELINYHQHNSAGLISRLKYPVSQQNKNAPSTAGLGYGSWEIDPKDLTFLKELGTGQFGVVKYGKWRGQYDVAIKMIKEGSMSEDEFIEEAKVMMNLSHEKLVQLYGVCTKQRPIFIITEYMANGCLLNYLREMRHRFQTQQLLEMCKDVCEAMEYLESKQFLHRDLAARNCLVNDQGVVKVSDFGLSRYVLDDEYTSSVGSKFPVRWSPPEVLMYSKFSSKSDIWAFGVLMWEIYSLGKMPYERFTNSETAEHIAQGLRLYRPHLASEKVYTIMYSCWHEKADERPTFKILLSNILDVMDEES

For `COc1ccccc1-c1n[nH]c2nc(N)nc(-c3cccc(-n4ccc5cc(C6CC6)cc(F)c5c4=O)c3CO)c12` [Example 21, 2-{3-[6-amino-3-(2-methoxyphenyl)-1H-pyrazolo[3,4-d]pyrimidin-4-yl]-2-(hydroxymethyl)phenyl}-6-cyclopropyl-8-fluoroisoquinolin-1(2H)-one], the IC50 (dephosphorylated BTK) was < 0.01 µM.

For `COc1ccccc1-c1nc2c(-c3cccc(-n4ccc5cc(C6CC6)cc(F)c5c4=O)c3CO)nc(N)nc2[nH]1` [Example 24, 2-{3-[2-amino-8-(2-methoxyphenyl)-9H-purin-6-yl]-2-(hydroxymethyl)phenyl}-6-cyclopropyl-8-fluoroisoquinolin-1(2H)-one], the IC50 (dephosphorylated BTK) was < 0.01 µM.

In the case of `COc1ccc(-c2n[nH]c3nc(N)nc(-c4cccc(-n5ccc6cc(C7CC7)cc(F)c6c5=O)c4CO)c23)cc1` [Example 20, 2-{3-[6-amino-3-(4-methoxyphenyl)-1H-pyrazolo[3,4-d]pyrimidin-4-yl]-2-(hydroxymethyl)phenyl}-6-cyclopropyl-8-fluoroisoquinolin-1(2H)-one], the IC50 (dephosphorylated BTK) is reported as < 0.01 µM.

In the case of `Cc1n[nH]c2nc(N)nc(-c3cccc(-n4ccc5cc(C6CC6)cc(F)c5c4=O)c3CO)c12` [Example 10, 2-[3-(6-amino-3-methyl-1H-pyrazolo[3,4-d]pyrimidin-4-yl)-2-(hydroxymethyl)phenyl]-6-cyclopropyl-8-fluoroisoquinolin-1(2H)-one], the IC50 (dephosphorylated BTK) is reported as < 0.01 µM.

With `Nc1nc(-c2cccc(-n3ccc4cc(C5CC5)cc(F)c4c3=O)c2CO)c2cc[nH]c2n1` [Example 6, 2-[3-(2-amino-7H-pyrrolo[2,3-d]pyrimidin-4-yl)-2-(hydroxymethyl)phenyl]-6-cyclopropyl-8-fluoroisoquinolin-1(2H)-one] the IC50 (dephosphorylated BTK) was < 0.01 µM.

`COc1cccc(-c2n[nH]c3nc(N)nc(-c4cccc(-n5ccc6cc(C7CC7)cc(F)c6c5=O)c4CO)c23)c1` [Example 22, 2-{3-[6-amino-3-(3-methoxyphenyl)-1H-pyrazolo[3,4-d]pyrimidin-4-yl]-2-(hydroxymethyl)phenyl}-6-cyclopropyl-8-fluoroisoquinolin-1(2H)-one] was tested, and the IC50 (dephosphorylated BTK) was < 0.01 µM.

`C=CC(=O)NCc1cc2c(-c3cccc(-n4ccc5cc(C6CC6)cc(F)c5c4=O)c3CO)nc(N)nc2[nH]1` [Example 30, N-({2-amino-4-[3-(6-cyclopropyl-8-fluoro-1-oxoisoquinolin-2(1H)-yl)-2-(hydroxymethyl)phenyl]-7H-pyrrolo[2,3-d]pyrimidin-6-yl}methyl)acrylamide] showed an IC50 (dephosphorylated BTK) of 0.01 to 0.1 µM.

For `Nc1nc(-c2cccc(-n3ccc4cc(C5CC5)cc(F)c4c3=O)c2CO)c2c(-c3ccccc3)c[nH]c2n1` [Example 28, 2-[3-(2-amino-5-phenyl-7H-pyrrolo[2,3-d]pyrimidin-4-yl)-2-(hydroxymethyl)phenyl]-6-cyclopropyl-8-fluoroisoquinolin-1(2H)-one], the IC50 (dephosphorylated BTK) was < 0.01 µM.

For `Cc1cc2c(-c3cccc(-n4ccc5cc(C6CC6)cc(F)c5c4=O)c3CO)nc(N)nc2[nH]1` [Example 7, 2-[3-(2-amino-6-methyl-7H-pyrrolo[2,3-d]pyrimidin-4-yl)-2-(hydroxymethyl)phenyl]-6-cyclopropyl-8-fluoroisoquinolin-1(2H)-one], the IC50 (dephosphorylated BTK) was < 0.01 µM.

Work on `Nc1nc(-c2cccc(-n3ccc4cc(C5CC5)cc(F)c4c3=O)c2CO)c2cc(CO)[nH]c2n1` [Example 11, 2-{3-[2-amino-6-(hydroxymethyl)-7H-pyrrolo[2,3-d]pyrimidin-4-yl]-2-(hydroxymethyl)phenyl}-6-cyclopropyl-8-fluoroisoquinolin-1(2H)-one] yielded an IC50 (dephosphorylated BTK) of 0.01 to 0.1 µM.

Work on `Cn1ccc(-c2cc3c(-c4cccc(-n5ccc6cc(C7CC7)cc(F)c6c5=O)c4CO)nc(N)nc3[nH]2)n1` [Example 78, 2-{3-[2-amino-6-(1-methyl-1H-pyrazol-3-yl)-7H-pyrrolo[2,3-d]pyrimidin-4-yl]-2-(hydroxymethyl)phenyl}-6-cyclopropyl-8-fluoroisoquinolin-1(2H)-one] yielded an IC50 (OCI-Ly10 cells) of 0.05 µM.

`Cc1ccc(-c2cc3c(-c4cccc(-n5ccc6cc(C7CC7)cc(F)c6c5=O)c4CO)nc(N)nc3[nH]2)cc1` [Example 56, 2-{3-[2-amino-6-(p-tolyl)-7H-pyrrolo[2,3-d]pyrimidin-4-yl]-2-(hydroxymethyl)phenyl}-6-cyclopropyl-8-fluoroisoquinolin-1(2H)-one] was tested, and the IC50 (OCI-Ly10 cells) was 0.412 µM.

With `COC1CCN(Cc2ccc(-c3cc4c(-c5cccc(-n6ccc7cc(C8CC8)cc(F)c7c6=O)c5CO)nc(N)nc4[nH]3)cc2)CC1` [Example 74, 2-[3-(2-amino-6-{4-[(4-methoxypiperidin-1-yl)methyl]phenyl}-7H-pyrrolo[2,3-d]pyrimidin-4-yl)-2-(hydroxymethyl)phenyl]-6-cyclopropyl-8-fluoroisoquinolin-1(2H)-one] the IC50 (OCI-Ly10 cells) was 0.013 µM.

In the case of `Nc1nc(-c2cccc(-n3ccc4cc(C5CC5)cc(F)c4c3=O)c2CO)c2cc(-c3ccncc3)[nH]c2n1` [Example 19, 2-{3-[2-amino-6-(pyridin-4-yl)-7H-pyrrolo[2,3-d]pyrimidin-4-yl]-2-(hydroxymethyl)phenyl}-6-cyclopropyl-8-fluoroisoquinolin-1(2H)-one], the IC50 (dephosphorylated BTK) is reported as < 0.01 µM.

With `CNc1ccc(-c2cc3c(-c4cccc(-n5ccc6cc(C7CC7)cc(F)c6c5=O)c4CO)nc(N)nc3[nH]2)cn1` [Example 47, 2-(3-{2-amino-6-[6-(methylamino)pyridin-3-yl]-7H-pyrrolo[2,3-d]pyrimidin-4-yl}-2-(hydroxymethyl)phenyl)-6-cyclopropyl-8-fluoroisoquinolin-1(2H)-one] the IC50 (OCI-Ly10 cells) was 0.204 µM.

For `Nc1nc(-c2cccc(-n3ccc4cc(C5CC5)cc(F)c4c3=O)c2CO)c2nc(C3CC3)[nH]c2n1` [Example 12, 2-[3-(2-amino-8-cyclopropyl-9H-purin-6-yl)-2-(hydroxymethyl)phenyl]-6-cyclopropyl-8-fluoroisoquinolin-1(2H)-one], the IC50 (dephosphorylated BTK) was < 0.01 µM.

`Nc1nc(-c2cccc(-n3ccc4cc(C5CC5)cc(F)c4c3=O)c2CO)c2cc(-c3ccc(CN4CCC(O)CC4)cc3)[nH]c2n1` [Example 73, 2-[3-(2-amino-6-{4-[(4-hydroxypiperidin-1-yl)methyl)phenyl}-7H-pyrrolo[2,3-d]pyrimidin-4-yl)-2-(hydroxymethyl)phenyl]-6-cyclopropyl-8-fluoroisoquinolin-1(2H)-one] gave an IC50 (OCI-Ly10 cells) of 0.011 µM.

`CCn1cc(-c2cc3c(-c4cccc(-n5ccc6cc(C7CC7)cc(F)c6c5=O)c4CO)nc(N)nc3[nH]2)cn1` [Example 62, 2-{3-[2-amino-6-(1-ethyl-1H-pyrazol-4-yl)-7H-pyrrolo[2,3-d]pyrimidin-4-yl]-2-(hydroxymethyl)phenyl}-6-cyclopropyl-8-fluoroisoquinolin-1(2H)-one] showed an IC50 (OCI-Ly10 cells) of 0.015 µM.

`Nc1nc(-c2cccc(-n3ccc4cc(C5CC5)cc(F)c4c3=O)c2CO)c2cc(-c3cnn(-c4ccccc4)c3)[nH]c2n1` [Example 64, 2-{3-[2-amino-6-(1-phenyl-1H-pyrazol-4-yl)-7H-pyrrolo[2,3-d]pyrimidin-4-yl]-2-(hydroxymethyl)phenyl}-6-cyclopropyl-8-fluoroisoquinolin-1(2H)-one] showed an IC50 (OCI-Ly10 cells) of 0.642 µM.

With `Nc1nc(-c2cccc(-n3ccc4cc(C5CC5)cc(F)c4c3=O)c2CO)c2cc(-c3ccc(CN4CCC(F)(F)CC4)cc3)[nH]c2n1` [Example 77, 2-[3-(2-amino-6-{4-[(4,4-difluoropiperidin-1-yl)methyl]phenyl}-7H-pyrrolo[2,3-d]pyrimidin-4-yl)-2-(hydroxymethyl)phenyl]-6-cyclopropyl-8-fluoroisoquinolin-1(2H)-one] the IC50 (OCI-Ly10 cells) was 0.062 µM.

`Nc1nc(-c2cccc(-n3ccc4cc(C5CC5)cc(F)c4c3=O)c2CO)c2cc(C3CC3)[nH]c2n1` [Example 9, 2-[3-(2-amino-6-cyclopropyl-7H-pyrrolo[2,3-d]pyrimidin-4-yl)-2-(hydroxymethyl)phenyl]-6-cyclopropyl-8-fluoroisoquinolin-1(2H)-one] was tested, and the IC50 (dephosphorylated BTK) was < 0.01 µM.

In the case of `Nc1nc(-c2cccc(-n3ccc4cc(C5CC5)cc(F)c4c3=O)c2CO)c2nc[nH]c2n1` [Example 4, 2-[3-(2-amino-9H-purin-6-yl)-2-(hydroxymethyl)phenyl]-6-cyclopropyl-8-fluoroisoquinolin-1(2H)-one], the IC50 (dephosphorylated BTK) is reported as < 0.01 µM.
